Experiments:
[1] = biological target: T1, ABL2/ARG (Homo sapiens, UniProt P42684); assay: HotSpot in vitro kinase radiometric assay; format: biochemical
T1 construct: purchased Reaction Biology (HotSpot contract assay)

[2] = biological target: T2, BLK (Homo sapiens, UniProt P51451); assay: HotSpot in vitro kinase radiometric assay; format: biochemical
T2 construct: purchased Reaction Biology (HotSpot contract assay)
Summary of the method: (§1)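 Radiometric filter-binding read-out of 32P/33P-labelled phosphoproduct captured on filter paper. Reactions contain kinase, substrate, cofactors and ɣ-labelled ATP plus test compound; no modified substrate or coupling enzyme used.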

[3] = biological target: T3, LYN B (Homo sapiens, UniProt P07948); assay: HotSpot in vitro kinase radiometric assay; format: biochemical
T3 construct: purchased Reaction Biology (HotSpot contract assay)
T3 sequence (P07948 1-491 isoform P07948-2): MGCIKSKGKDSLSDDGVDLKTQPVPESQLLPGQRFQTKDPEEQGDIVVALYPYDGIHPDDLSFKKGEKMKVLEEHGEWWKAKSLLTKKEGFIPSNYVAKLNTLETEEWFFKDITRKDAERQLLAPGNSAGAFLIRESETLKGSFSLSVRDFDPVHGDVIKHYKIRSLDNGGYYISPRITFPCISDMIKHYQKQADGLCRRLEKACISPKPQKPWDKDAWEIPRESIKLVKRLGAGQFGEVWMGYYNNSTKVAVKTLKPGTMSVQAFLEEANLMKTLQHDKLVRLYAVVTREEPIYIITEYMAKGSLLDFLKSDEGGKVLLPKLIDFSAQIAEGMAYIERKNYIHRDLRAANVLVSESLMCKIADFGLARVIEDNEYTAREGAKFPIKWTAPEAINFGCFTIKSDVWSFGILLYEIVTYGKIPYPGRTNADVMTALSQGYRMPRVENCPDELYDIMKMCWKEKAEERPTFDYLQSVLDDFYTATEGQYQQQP
Summary of the method: as §1

[4] = biological target: T4, PDK2/PDHK2 (Homo sapiens, UniProt Q15119); assay: HotSpot in vitro kinase radiometric assay; format: biochemical
T4 construct: purchased Reaction Biology (HotSpot contract assay)
Summary of the method: as §1

[5] = biological target: T5, PDK4/PDKH4 (Homo sapiens, UniProt Q16654); assay: HotSpot in vitro kinase radiometric assay; format: biochemical
T5 construct: purchased Reaction Biology (HotSpot contract assay)
Summary of the method: as §1

[6] = biological target: T6, c-Src (Homo sapiens, UniProt P12931); assay: HotSpot in vitro kinase radiometric assay; format: biochemical
T6 construct: purchased Reaction Biology (HotSpot contract assay)
Summary of the method: as §1

[7] = biological target: T7, PEAK1 (Homo sapiens, UniProt Q9H792); assay: HotSpot in vitro kinase radiometric assay; format: biochemical
T7 construct: purchased Reaction Biology (HotSpot contract assay)
T7 sequence (Q9H792 whole entry): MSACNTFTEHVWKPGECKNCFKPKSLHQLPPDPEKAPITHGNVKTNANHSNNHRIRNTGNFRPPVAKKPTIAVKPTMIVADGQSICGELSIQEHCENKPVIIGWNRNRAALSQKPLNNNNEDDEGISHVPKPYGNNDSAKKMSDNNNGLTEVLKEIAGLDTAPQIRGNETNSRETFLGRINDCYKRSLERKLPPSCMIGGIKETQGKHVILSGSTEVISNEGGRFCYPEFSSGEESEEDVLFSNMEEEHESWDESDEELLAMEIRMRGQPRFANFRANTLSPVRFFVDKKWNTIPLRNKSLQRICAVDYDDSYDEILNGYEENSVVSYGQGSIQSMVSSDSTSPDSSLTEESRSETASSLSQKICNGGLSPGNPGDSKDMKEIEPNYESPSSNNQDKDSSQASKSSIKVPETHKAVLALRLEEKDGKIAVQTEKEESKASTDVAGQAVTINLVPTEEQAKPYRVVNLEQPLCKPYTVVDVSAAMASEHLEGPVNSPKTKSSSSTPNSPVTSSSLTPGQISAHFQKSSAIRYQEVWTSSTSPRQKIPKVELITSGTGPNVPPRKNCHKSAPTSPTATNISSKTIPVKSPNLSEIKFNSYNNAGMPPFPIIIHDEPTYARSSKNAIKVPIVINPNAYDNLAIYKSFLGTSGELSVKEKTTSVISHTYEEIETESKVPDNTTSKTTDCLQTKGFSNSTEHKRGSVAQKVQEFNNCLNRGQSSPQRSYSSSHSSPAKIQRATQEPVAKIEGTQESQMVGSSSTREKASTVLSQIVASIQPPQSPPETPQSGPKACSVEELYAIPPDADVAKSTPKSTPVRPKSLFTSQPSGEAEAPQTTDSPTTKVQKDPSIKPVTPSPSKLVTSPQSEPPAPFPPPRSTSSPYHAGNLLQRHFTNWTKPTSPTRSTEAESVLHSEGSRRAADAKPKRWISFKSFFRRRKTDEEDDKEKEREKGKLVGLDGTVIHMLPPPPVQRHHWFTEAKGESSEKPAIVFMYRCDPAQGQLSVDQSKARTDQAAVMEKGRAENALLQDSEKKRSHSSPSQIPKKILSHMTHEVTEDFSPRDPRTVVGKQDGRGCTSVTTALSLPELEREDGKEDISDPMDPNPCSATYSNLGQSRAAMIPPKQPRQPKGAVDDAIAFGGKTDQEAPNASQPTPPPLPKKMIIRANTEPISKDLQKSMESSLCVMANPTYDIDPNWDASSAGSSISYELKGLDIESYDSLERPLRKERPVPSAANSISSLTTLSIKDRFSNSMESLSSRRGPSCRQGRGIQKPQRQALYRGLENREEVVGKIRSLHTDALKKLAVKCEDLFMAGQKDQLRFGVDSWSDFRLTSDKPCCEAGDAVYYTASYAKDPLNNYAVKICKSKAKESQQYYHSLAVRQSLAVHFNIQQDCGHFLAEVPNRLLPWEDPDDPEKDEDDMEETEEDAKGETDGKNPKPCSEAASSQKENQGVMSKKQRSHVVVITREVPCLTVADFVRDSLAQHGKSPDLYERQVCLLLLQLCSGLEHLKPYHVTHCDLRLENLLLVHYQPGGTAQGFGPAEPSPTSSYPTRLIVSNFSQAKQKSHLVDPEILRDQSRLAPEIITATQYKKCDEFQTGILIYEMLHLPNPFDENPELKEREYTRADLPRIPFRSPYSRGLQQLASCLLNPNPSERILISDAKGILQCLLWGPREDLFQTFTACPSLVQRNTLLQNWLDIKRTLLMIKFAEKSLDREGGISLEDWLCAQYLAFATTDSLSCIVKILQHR

[8] = biological target: T8, FGR (Homo sapiens, UniProt P09769); assay: HotSpot in vitro kinase radiometric assay; format: biochemical
T8 construct: purchased Reaction Biology (HotSpot contract assay)

[9] = biological target: T9, FYN (Homo sapiens, UniProt P06241); assay: HotSpot in vitro kinase radiometric assay; format: biochemical
T9 construct: purchased Reaction Biology (HotSpot contract assay)

[10] = biological target: T10, PASK (Homo sapiens, UniProt Q96RG2); assay: HotSpot in vitro kinase radiometric assay; format: biochemical
T10 construct: purchased Reaction Biology (HotSpot contract assay)
Summary of the method: as §1

[11] = biological target: T11, TRKA (Homo sapiens, UniProt P04629); assay: HotSpot in vitro kinase radiometric assay; format: biochemical
T11 construct: purchased Reaction Biology (HotSpot contract assay)
Summary of the method: as §1

[12] = biological target: T12, TRKC (Homo sapiens, UniProt Q16288); assay: HotSpot in vitro kinase radiometric assay; format: biochemical
T12 construct: purchased Reaction Biology (HotSpot contract assay)

[13] = biological target: T13, LCK (Homo sapiens, UniProt P06239); assay: HotSpot in vitro kinase radiometric assay; format: biochemical
T13 construct: purchased Reaction Biology (HotSpot contract assay)
T13 sequence (P06239 whole entry): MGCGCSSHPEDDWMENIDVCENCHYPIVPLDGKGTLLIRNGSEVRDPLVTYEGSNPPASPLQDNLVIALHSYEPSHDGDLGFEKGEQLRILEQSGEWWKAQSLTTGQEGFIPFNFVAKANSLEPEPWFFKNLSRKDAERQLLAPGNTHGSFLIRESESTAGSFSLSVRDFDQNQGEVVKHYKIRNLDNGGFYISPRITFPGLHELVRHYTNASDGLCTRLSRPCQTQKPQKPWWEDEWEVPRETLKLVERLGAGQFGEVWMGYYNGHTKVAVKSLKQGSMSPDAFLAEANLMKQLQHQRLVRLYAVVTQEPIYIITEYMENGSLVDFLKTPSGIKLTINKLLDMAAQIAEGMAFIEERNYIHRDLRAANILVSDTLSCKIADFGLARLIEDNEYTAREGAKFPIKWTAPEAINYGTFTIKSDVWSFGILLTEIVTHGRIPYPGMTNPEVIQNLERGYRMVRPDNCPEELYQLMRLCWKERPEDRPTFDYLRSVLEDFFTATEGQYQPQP

[14] = biological target: T14, YES/YES1 (Homo sapiens, UniProt P07947); assay: HotSpot in vitro kinase radiometric assay; format: biochemical
T14 construct: purchased Reaction Biology (HotSpot contract assay)
T14 sequence (P07947 whole entry): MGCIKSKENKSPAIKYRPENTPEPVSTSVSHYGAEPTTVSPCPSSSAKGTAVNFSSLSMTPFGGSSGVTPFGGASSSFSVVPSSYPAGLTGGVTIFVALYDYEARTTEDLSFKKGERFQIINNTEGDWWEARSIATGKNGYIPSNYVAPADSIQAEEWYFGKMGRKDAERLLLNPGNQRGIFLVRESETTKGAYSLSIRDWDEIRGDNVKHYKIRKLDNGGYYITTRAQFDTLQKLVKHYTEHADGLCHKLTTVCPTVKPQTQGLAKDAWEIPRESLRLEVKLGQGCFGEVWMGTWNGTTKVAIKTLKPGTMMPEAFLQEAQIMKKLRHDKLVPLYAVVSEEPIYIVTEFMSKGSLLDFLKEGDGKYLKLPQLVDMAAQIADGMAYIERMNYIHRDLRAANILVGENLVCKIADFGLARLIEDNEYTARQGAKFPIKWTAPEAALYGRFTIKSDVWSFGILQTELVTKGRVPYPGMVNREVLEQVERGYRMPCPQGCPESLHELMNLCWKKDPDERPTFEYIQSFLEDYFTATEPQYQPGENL

[15] = tested on: HSP90AB1; parameters: method as in ChEMBL23 (accessed: 23/08/2018); conditions: average of reported values; ref ChEMBL23 (accessed: 23/08/2018); cited from earlier work
[16] = tested on: LTK; parameters: method as in ChEMBL23 (accessed: 23/08/2018); conditions: average of reported values; ref ChEMBL23 (accessed: 23/08/2018); cited from earlier work
[17] = tested on: MET; parameters: method as in ChEMBL23 (accessed: 23/08/2018); conditions: average of reported values; ref ChEMBL23 (accessed: 23/08/2018); cited from earlier work
[18] = tested on: PIM1; parameters: method as in ChEMBL23 (accessed: 23/08/2018); conditions: average of reported values; ref ChEMBL23 (accessed: 23/08/2018); cited from earlier work
[19] = biological target: ABL1 (Homo sapiens, UniProt P00519); assay: HotSpot in vitro kinase radiometric assay; format: biochemical; parameters: purchased Reaction Biology (HotSpot contract assay)
[20] = biological target: DDR1 (Homo sapiens, UniProt Q08345); assay: HotSpot in vitro kinase radiometric assay; format: biochemical; parameters: purchased Reaction Biology (HotSpot contract assay)
Chain of DDR1 (Q08345 19-913): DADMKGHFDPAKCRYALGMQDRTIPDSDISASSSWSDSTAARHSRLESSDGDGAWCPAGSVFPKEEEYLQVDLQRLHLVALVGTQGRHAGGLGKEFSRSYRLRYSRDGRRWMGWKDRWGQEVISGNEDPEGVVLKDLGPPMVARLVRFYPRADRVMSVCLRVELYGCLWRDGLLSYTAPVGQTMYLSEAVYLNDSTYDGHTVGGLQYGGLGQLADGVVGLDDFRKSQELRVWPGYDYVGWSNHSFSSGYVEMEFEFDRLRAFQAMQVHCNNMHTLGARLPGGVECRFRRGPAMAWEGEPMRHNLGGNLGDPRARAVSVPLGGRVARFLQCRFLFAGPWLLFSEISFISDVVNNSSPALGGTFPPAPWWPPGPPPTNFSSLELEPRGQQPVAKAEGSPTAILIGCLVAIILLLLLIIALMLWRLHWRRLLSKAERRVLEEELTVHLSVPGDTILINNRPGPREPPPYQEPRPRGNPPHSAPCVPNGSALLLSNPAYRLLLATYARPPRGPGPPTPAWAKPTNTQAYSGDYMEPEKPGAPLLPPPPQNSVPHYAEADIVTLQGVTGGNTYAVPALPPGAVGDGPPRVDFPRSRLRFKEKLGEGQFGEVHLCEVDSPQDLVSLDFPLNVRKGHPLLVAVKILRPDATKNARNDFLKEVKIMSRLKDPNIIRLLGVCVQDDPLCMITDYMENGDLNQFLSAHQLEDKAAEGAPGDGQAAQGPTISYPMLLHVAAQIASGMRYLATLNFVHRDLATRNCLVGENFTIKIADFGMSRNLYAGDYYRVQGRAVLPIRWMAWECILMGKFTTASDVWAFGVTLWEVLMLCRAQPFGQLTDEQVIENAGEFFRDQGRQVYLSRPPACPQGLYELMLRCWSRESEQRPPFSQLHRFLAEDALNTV

T2 sequence (P51451 whole entry): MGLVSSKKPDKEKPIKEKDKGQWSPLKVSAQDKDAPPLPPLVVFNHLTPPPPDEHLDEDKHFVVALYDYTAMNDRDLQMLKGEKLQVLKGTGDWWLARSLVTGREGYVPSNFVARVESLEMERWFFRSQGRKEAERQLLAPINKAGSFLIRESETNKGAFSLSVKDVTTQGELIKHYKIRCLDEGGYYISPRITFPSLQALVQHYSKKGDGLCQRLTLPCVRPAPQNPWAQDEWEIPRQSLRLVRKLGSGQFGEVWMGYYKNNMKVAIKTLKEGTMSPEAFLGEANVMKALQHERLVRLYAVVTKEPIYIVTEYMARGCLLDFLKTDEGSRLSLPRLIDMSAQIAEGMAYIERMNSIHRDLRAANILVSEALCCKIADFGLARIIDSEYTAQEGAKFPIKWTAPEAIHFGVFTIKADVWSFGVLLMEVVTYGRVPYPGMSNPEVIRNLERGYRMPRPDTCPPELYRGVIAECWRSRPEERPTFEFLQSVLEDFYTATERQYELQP

Q: Which results are given for `CCc1cc(-c2[nH]nc(C)c2-c2ccc3c(c2)OCCO3)c(O)cc1O` [CCT018159]?
A: remaining activity at 10 µM ([1]; ABL2/ARG, 10uM, ATP 30 uM, Data 1, Data 2, read-out: % Enzyme Activity (relative to DMSO controls)): 63.6%; inhibition at 10 µM ([1]; read-out: % inhibition at 10 uM: ABL2, 10 μM, Fig 6C median ± standard deviation (n = 2)): 32 ± 7%; remaining activity at 10 µM ([2]; BLK, 10uM, ATP 10 uM, Data 1, Data 2, read-out: % Enzyme Activity (relative to DMSO controls)): 15.3%; inhibition at 10 µM ([2]; read-out: % inhibition at 10 uM: BLK, 10 μM, Fig 6C median ± standard deviation (n = 2)): 85 ± 1%; remaining activity at 10 µM ([3]; LYN B, 10uM, ATP 20 uM, Data 1, Data 2, read-out: % Enzyme Activity (relative to DMSO controls)): 100%; inhibition at 10 µM ([3]; read-out: % inhibition at 10 uM: LYN B, 10 μM, Fig 6C median ± standard deviation (n = 2)): -1 ± 1%; remaining activity at 10 µM ([4]; PDK2/PDHK2, 10uM, ATP 15 uM, Data 1, Data 2, read-out: % Enzyme Activity (relative to DMSO controls)): 42.8%; inhibition at 10 µM ([4]; read-out: % inhibition at 10 uM: PDK2, 10 μM, Fig 6C median ± standard deviation (n = 2)): 50 ± 10%; remaining activity at 10 µM ([5]; PDK4/PDKH4, 10uM, ATP 30 uM, Data 1, Data 2, read-out: % Enzyme Activity (relative to DMSO controls)): 66.3%; inhibition at 10 µM ([5]; read-out: % inhibition at 10 uM: PDK4, 10 μM, Fig 6C median ± standard deviation (n = 2)): 33 ± 1%; remaining activity at 10 µM ([6]; c-Src, 10uM, ATP 15 uM, Data 1, Data 2, read-out: % Enzyme Activity (relative to DMSO controls)): 86.2%; inhibition at 10 µM ([6]; read-out: % inhibition at 10 uM: SRC, 10 μM, Fig 6C median ± standard deviation (n = 2)): 14 ± 1%; % inhibition at 10 uM: PEAK1 ([7]; 10 μM, Fig 6C median ± standard deviation (n = 2)): 83 ± 1%; remaining activity at 10 µM ([7]; PEAK1, 10uM, ATP 30 uM, Data 1, Data 2, read-out: % Enzyme Activity (relative to DMSO controls)): 16.4%; inhibition at 10 µM ([7]; read-out: % inhibition at 10 uM: PEAK1, 10 μM, Fig 6C median ± standard deviation (n = 2)): > 70%; remaining activity at 10 µM ([8]; FGR, 10uM, ATP 50 uM, Data 1, Data 2, read-out: % Enzyme Activity (relative to DMSO controls)): 26.1%; inhibition at 10 µM ([8]; read-out: % inhibition at 10 uM: FGR, 10 μM, Fig 6C median ± standard deviation (n = 2)): 71 ± 4%; remaining activity at 10 µM ([9]; FYN, 10uM, ATP 30 uM, Data 1, Data 2, read-out: % Enzyme Activity (relative to DMSO controls)): 31.4%; inhibition at 10 µM ([9]; read-out: % inhibition at 10 uM: FYN, 10 μM, Fig 6C median ± standard deviation (n = 2)): 69%; remaining activity at 10 µM ([10]; PASK, 10uM, ATP 50 uM, Data 1, Data 2, read-out: % Enzyme Activity (relative to DMSO controls)): 101%; inhibition at 10 µM ([10]; read-out: % inhibition at 10 uM: PASK, 10 μM, Fig 6C median ± standard deviation (n = 2)): 0%; remaining activity at 10 µM ([11]; TRKA, 10uM, ATP 100 uM, Data 1, Data 2, read-out: % Enzyme Activity (relative to DMSO controls)): 34.6%; inhibition at 10 µM ([11]; read-out: % inhibition at 10 uM: TRKA, 10 μM, Fig 6C median ± standard deviation (n = 2)): 66 ± 1%; remaining activity at 10 µM ([12]; TRKC, 10uM, ATP 100 uM, Data 1, Data 2, read-out: % Enzyme Activity (relative to DMSO controls)): 96.1%; inhibition at 10 µM ([12]; read-out: % inhibition at 10 uM: TRKC, 10 μM, Fig 6C median ± standard deviation (n = 2)): 5 ± 1%; remaining activity at 10 µM ([13]; LCK, 10uM, ATP 15 uM, Data 1, Data 2, read-out: % Enzyme Activity (relative to DMSO controls)): 61.4%; inhibition at 10 µM ([13]; read-out: % inhibition at 10 uM: LCK, 10 μM, Fig 6C median ± standard deviation (n = 2)): 36 ± 4%; remaining activity at 10 µM ([14]; YES/YES1, 10uM, ATP 50 uM, Data 1, Data 2, read-out: % Enzyme Activity (relative to DMSO controls)): 92%; inhibition at 10 µM ([14]; read-out: % inhibition at 10 uM: YES, 10 μM, Fig 6C median ± standard deviation (n = 2)): 9 ± 1%; pActivity, HSP90AB1 [15]: 6.55; pActivity, LTK [16]: 5.6; pActivity, MET [17]: 5.6; pActivity, PIM1 [18]: 5.8; remaining activity at 10 µM ([19]; ABL1, 10uM, ATP 40 uM, Data 1, Data 2, read-out: % Enzyme Activity (relative to DMSO controls)): 80%; inhibition at 10 µM ([19]; read-out: % inhibition at 10 uM: ABL1, 10 μM, Fig 6C median ± standard deviation (n = 2)): 19 ± 2%; remaining activity at 10 µM ([20]; DDR1, 10uM, ATP 100 uM, Data 1, Data 2, read-out: % Enzyme Activity (relative to DMSO controls)): 20.1%; inhibition at 10 µM ([20]; read-out: % inhibition at 10 uM: DDR1, 10 μM, Fig 6C median ± standard deviation (n = 2)): 81%
